Assay results from patent US11472791B2 (Incyte Corporation, priority 2019, dated 2022).

molecular target: CDK2/Cyclin E1 (Homo sapiens (Human), UniProt P24941); assay: CDK2/Cyclin E1 HTRF enzyme activity assay; type: biochemical; details: 1 mM ATP
Procedure: Assays are conducted in white 384-well polystyrene plates in a final reaction volume of 8 μL. […] HTRF signals are read after 1 hour at room temperature on a PHERAstar FS plate reader (BMG Labtech). Data is analyzed with IDBS XLFit and GraphPad Prism 5.0 software using a three or four parameter dose response curve to determine IC50 for each compound.

| IC50 [nM] | SMILES |
| --- | --- |
| < 50 | CN1CCC(n2cc(-c3nc(NC4CCN(S(C)(=O)=O)CC4)ncc3F)c(C(F)(F)F)n2)CC1 [Example 17, 5-Fluoro-4-(1-(1-methylpiperidin-4-yl)-3-(trifluoromethyl)-1H-pyrazol-4-yl)-N-(1-(methylsulfonyl)piperidin-4-yl)pyrimidin-2-amine] |
| 50 to 200 | CN1CCC(n2ncc(-c3nc(NC4CCN(S(C)(=O)=O)CC4)ncc3C(F)(F)F)c2C(F)(F)F)CC1 [Example 18, 4-(1-(1-Methylpiperidin-4-yl)-5-(trifluoromethyl)-1H-pyrazol-4-yl)-N-(1-(methylsulfonyl)piperidin-4-yl)-5-(trifluoromethyl)pyrimidin-2-amine] |
| 500 to 1000 | CS(=O)(=O)N1CC(Nc2ncc(C(F)(F)F)c(-c3cnn(C4CCOCC4)c3)n2)C1 [Example 20, N-(1-(Methylsulfonyl)azetidin-3-yl)-4-(1-(tetrahydro-2H-pyran-4-yl)-1H-pyrazol-4-yl)-5-(trifluoromethyl)pyrimidin-2-amine] |
| < 50 | CS(=O)(=O)N1CCC(Nc2ncc(Cl)c(-c3cnn(C4CCOCC4)c3)n2)CC1 [Example 22, 5-Chloro-N-(1-(methylsulfonyl)piperidin-4-yl)-4-(1-(tetrahydro-2H-pyran-4-yl)-1H-pyrazol-4-yl)pyrimidin-2-amine] |
| < 50 | Cn1cnc(S(=O)(=O)N2CCC(Nc3ncc(C(F)(F)F)c(-c4cnn(C5CCOCC5)c4)n3)CC2)c1 [Example 23, N-(1-((1-Methyl-1H-imidazol-4-yl)sulfonyl)piperidin-4-yl)-4-(1-(tetrahydro-2H-pyran-4-yl)-1H-pyrazol-4-yl)-5-(trifluoromethyl)pyrimidin-2-amine] |
| < 50 | CCn1cnc(S(=O)(=O)N2CCC(Nc3ncc(C(F)(F)F)c(-c4cnn(C5CCOCC5)c4)n3)CC2)c1 [Example 24, N-(1-((1-Ethyl-1H-imidazol-4-yl)sulfonyl)piperidin-4-yl)-4-(1-(tetrahydro-2H-pyran-4-yl)-1H-pyrazol-4-yl)-5-(trifluoromethyl)pyrimidin-2-amine] |
| < 50 | Cn1cnc(S(=O)(=O)N2CCC(Nc3ncc(C(F)(F)F)c(-c4cnn(CC(F)(F)F)c4)n3)CC2)c1 [Example 25, N-(1-((1-Methyl-1H-imidazol-4-yl)sulfonyl)piperidin-4-yl)-4-(1-(2,2,2-trifluoroethyl)-1H-pyrazol-4-yl)-5-(trifluoromethyl)pyrimidin-2-amine] |
| < 50 | Cn1cnc(S(=O)(=O)N2CCC(Nc3ncc(C(F)(F)F)c(-c4cnn([C@H]5CC[C@H](O)CC5)c4)n3)CC2)c1 [Example 26, trans-4-(4-(2-((1-((1-Methyl-1H-imidazol-4-yl)sulfonyl)piperidin-4-yl)amino)-5-(trifluoromethyl)pyrimidin-4-yl)-1H-pyrazol-1-yl)cyclohexan-1-ol] |
| < 50 | Cc1nc(C(=O)N[C@]2(C)C[C@H](O)C2)ccc1-n1cc(-c2nc(NC3CCN(S(C)(=O)=O)CC3)ncc2C(F)(F)F)cn1 [Example 28, N-(cis-3-Hydroxy-1-methylcyclobutyl)-6-methyl-5-(4-(2-(1-(methylsulfonyl)piperidin-4-ylamino)-5-(trifluoromethyl)pyrimidin-4-yl)-1H-pyrazol-1-yl)picolinamide] |
| < 50 | CNCc1ccc(-n2cc(-c3nc(NC4CCN(S(C)(=O)=O)CC4)ncc3C(F)(F)F)cn2)c(Cl)c1 [Example 29, 4-(1-(2-Chloro-4-((methylamino)methyl)phenyl)-1H-pyrazol-4-yl)-V-(1-(methylsulfonyl)piperidin-4-yl)-5-(trifluoromethyl)pyrimidin-2-amine] |
| < 50 | CC(C)(C(N)=O)n1cc(-c2nc(NC3CCN(S(C)(=O)=O)CC3)ncc2C(F)(F)F)cn1 [Example 30, 2-Methyl-2-(4-(2-((1-(methylsulfonyl)piperidin-4-yl)amino)-5-(trifluoromethyl)pyrimidin-4-yl)-1H-pyrazol-1-yl)propanamide] |
| < 50 | Cn1cnc(S(=O)(=O)N2CCC(Nc3ncc(C(F)(F)F)c(-c4cnn(CC(F)F)c4)n3)CC2)c1 [Example 31, 4-(1-(2,2-Difluoroethyl)-1H-pyrazol-4-yl)-N-(1-((1-methyl-1H-imidazol-4-yl)sulfonyl)piperidin-4-yl)-5-(trifluoromethyl)pyrimidin-2-amine] |
| < 50 | Cn1cnc(S(=O)(=O)N2CCC(Nc3ncc(C(F)(F)F)c(-c4cnn(CC5CC5)c4)n3)CC2)c1 [Example 32, 4-(1-(Cyclopropylmethyl)-1H-pyrazol-4-yl)-N-(1-((1-methyl-1H-imidazol-4-yl)sulfonyl)piperidin-4-yl)-5-(trifluoromethyl)pyrimidin-2-amine] |
| < 50 | Cn1cnc(S(=O)(=O)N2CCC(Nc3ncc(C(F)(F)F)c(-c4cnn(C[C@H]5CCOC5)c4)n3)CC2)c1 [Example 33, (R)—N-(1-((1-Methyl-1H-imidazol-4-yl)sulfonyl)piperidin-4-yl)-4-(1-((tetrahydrofuran-3-yl)methyl)-1H-pyrazol-4-yl)-5-(trifluoromethyl)pyrimidin-2-amine] |
| < 50 | CS(=O)(=O)N1CCC(Nc2ncc(C(F)(F)F)c(-c3cnn([C@H]4CC[C@H](C#N)CC4)c3)n2)CC1 [Example 34, trans-4-(4-(2-((1-(Methylsulfonyl)piperidin-4-yl)amino)-5-(trifluoromethyl)pyrimidin-4-yl)-1H-pyrazol-1-yl)cyclohexane-1-carbonitrile] |
| < 50 | Cc1c(-n2cc(-c3nc(NC4CCN(S(=O)(=O)c5cn(C)cn5)CC4)ncc3C(F)(F)F)cn2)ccnc1N [Example 35, 4-(1-(2-Amino-3-methylpyridin-4-yl)-1H-pyrazol-4-yl)-N-(1-((1-methyl-1H-imidazol-4-yl)sulfonyl)piperidin-4-yl)-5-(trifluoromethyl)pyrimidin-2-amine] |
| < 50 | Cn1cnc(S(=O)(=O)N2CCC(Nc3ncc(C(F)(F)F)c(-c4cnn(-c5ccnc(N)c5Cl)c4)n3)CC2)c1 [Example 36, 4-(1-(2-Amino-3-chloropyridin-4-yl)-1H-pyrazol-4-yl)-N-(1-((1-methyl-1H-imidazol-4-yl)sulfonyl)piperidin-4-yl)-5-(trifluoromethyl)pyrimidin-2-amine] |
| < 50 | CS(=O)(=O)N1CCC(Nc2ncc(C(F)(F)F)c(-c3cnn(-c4cc(N)ncc4C(F)(F)F)c3)n2)CC1 [Example 37, 4-(1-(2-Amino-5-(trifluoromethyl)pyridin-4-yl)-1H-pyrazol-4-yl)-N-(1-(methylsulfonyl)piperidin-4-yl)-5-(trifluoromethyl)pyrimidin-2-amine] |
| < 50 | Cn1cnc(S(=O)(=O)N2CCC(Nc3ncc(C#N)c(-c4cnn(CC(F)(F)F)c4)n3)CC2)c1 [Example 38, 2-((1-((1-Methyl-1H-imidazol-4-yl)sulfonyl)piperidin-4-yl)amino)-4-(1-(2,2,2-trifluoroethyl)-1H-pyrazol-4-yl)pyrimidine-5-carbonitrile] |
| < 50 | N#Cc1cnc(NC2CCN(S(=O)(=O)c3ccccn3)CC2)nc1-c1cnn(CC(F)(F)F)c1 [Example 39, 2-((1-(Pyridin-2-ylsulfonyl)piperidin-4-yl)amino)-4-(1-(2,2,2-trifluoroethyl)-1H-pyrazol-4-yl)pyrimidine-5-carbonitrile] |
| < 50 | Cn1cnc(S(=O)(=O)N2CCC(Nc3ncc(Cl)c(-c4cnn(CC(F)(F)F)c4)n3)CC2)c1 [Example 40, 5-Chloro-N-(1-((1-methyl-1H-imidazol-4-yl)sulfonyl)piperidin-4-yl)-4-(1-(2,2,2-trifluoroethyl)-1H-pyrazol-4-yl)pyrimidin-2-amine] |
| < 50 | CO[C@H]1CC[C@H](n2cc(-c3nc(N[C@H]4CCN(S(=O)(=O)c5cn(C)cn5)C[C@H]4F)ncc3C(F)(F)F)cn2)CC1 [Example 43, N-((3R,4S)-3-Fluoro-1-((1-methyl-1H-imidazol-4-yl)sulfonyl)piperidin-4-yl)-4-(1-((trans)-4-methoxycyclohexyl)-1H-pyrazol-4-yl)-5-(trifluoromethyl)pyrimidin-2-amine] |
| < 50 | CC(C)S(=O)(=O)N1CCC(Nc2ncc(C(F)(F)F)c(-c3cnn([C@H]4C[C@@](C)(N)C4)c3)n2)CC1 [Example 45, 4-(1-((1s,3s)-3-Amino-3-methylcyclobutyl)-1H-pyrazol-4-yl)-N-(1-(isopropylsulfonyl)piperidin-4-yl)-5-(trifluoromethyl)pyrimidin-2-amine] |
| < 50 | C[C@]1(N)C[C@@H](n2cc(-c3nc(NC4CCN(S(=O)(=O)C5CCC5)CC4)ncc3C(F)(F)F)cn2)C1 [Example 46, 4-(1-((1s,3s)-3-Amino-3-methylcyclobutyl)-1H-pyrazol-4-yl)-N-(1-(cyclobutylsulfonyl)piperidin-4-yl)-5-(trifluoromethyl)pyrimidin-2-amine] |
| < 50 | C[C@@H]1CN(S(=O)(=O)C2CC2)CC[C@@H]1Nc1ncc(C(F)(F)F)c(-c2cnn([C@H]3C[C@@](C)(N)C3)c2)n1 [Example 47, 4-(1-((1s,3r)-3-Amino-3-methylcyclobutyl)-1H-pyrazol-4-yl)-N-((3R,4S)-1-(cyclopropylsulfonyl)-3-methylpiperidin-4-yl)-5-(trifluoromethyl)pyrimidin-2-amine] |
| < 50 | C[C@]1(N)C[C@@H](n2cc(-c3nc(N[C@H]4CCN(S(=O)(=O)C5CCC5)C[C@H]4F)ncc3C(F)(F)F)cn2)C1 [Example 48, 4-(1-((1s,3r)-3-Amino-3-methylcyclobutyl)-1H-pyrazol-4-yl)-N-((3R,4S)-1-(cyclobutylsulfonyl)-3-fluoropiperidin-4-yl)-5-(trifluoromethyl)pyrimidin-2-amine] |
| < 50 | CN[C@H]1C[C@@H](n2cc(-c3nc(NC4CCN(S(=O)(=O)c5ccccn5)CC4)ncc3C(F)(F)F)cn2)C1 [Example 49, 4-(1-((1s,3s)-3-(Methylamino)cyclobutyl)-1H-pyrazol-4-yl)-N-(1-(pyridin-2-ylsulfonyl)piperidin-4-yl)-5-(trifluoromethyl)pyrimidin-2-amine] |
